Measurements as given in patent US20220000875A1, “TOPICAL COMPOSITIONS COMPRISING PENTOXIFYLLINE AND METHODS OF TREATMENT USING THE SAME” (priority 2018, published 2022).

Experiments:
[1] = cited from earlier work
[2] = system: oral ulcers of BD patients; test: Randomized, open-label, proof-of-concept clinical study of topical PTX muco-adherent gel: oral ulcer healing, ulcer number, pain; format: in vivo, human
Procedure: (§1) A randomized, open-label, proof-of-concept clinical study was conducted under an FDA Investigational New Drug Application (IND). […] The CLC was administered orally as a pill and dosed as determined by the subject's physician. No less than every 48 hours, subjects' ulcers were photographed and examined using digital image processing to determine ulcer area, over a period of 14 days, which include daily collection of adverse events, ulcer number, and pain scores.
(§2) Inclusion criteria required the recent (<2 days) appearance of a new oral ulcer. Patients on immunosuppressant therapies were excluded from the study.
Patients were contacted daily for 14 consecutive days and were examined in-person no less than every 48 hours except for weekends. On the first day of entry into the study, the largest ulcer was identified and photographed as the “index ulcer”; its location was recorded and it was subsequently photographed at every in-person visit. Photographs were made with a paper ruler showing millimeter graduations lain in the same plane as the ulcer itself. Graphical processing software was used to compute the ulcer area in square millimeters; this software was calibrated from the paper ruler image and required drawing a line around the image of the ulcer margin.
Then, the proportion of patients with undetectable index ulcer (defined as those with an ulcer area of less than 1 mm^2) at day 4 was compared. Lastly, the trend in mean ulcer area over 14 days was compared as well as the results' sensitivity to outliers.
The total number of oral ulcers were also counted at each in-person visit, and the daily average number of oral ulcers were calculated during the treatment period.
The average day zero pain score for each treatment group was normalized to 100%. Then for each treatment group averages were plotted for succeeding days as a percentage of the first day's pain score average.

[3] = Adverse events in the randomized, open-label clinical study; settings: adverse event
Procedure: as §1, §2
All adverse events were reviewed in real time by the treating physician investigator.

[4] = day 2 of treatment, PTX+CLC n = 18, CLC n = 21
[5] = interpreted as dermal manifestations of BD

CC(O)CCCCn1c(=O)c2c(ncn2C)n(C)c1=O (centres unmarked) [Metabolite 1, 1-[5-hydroxyhexyl]-3,7-dimethylxanthine]
plasma levels of metabolite relative to PTX [1]: five

Cn1cnc2c1c(=O)n(CCCC(=O)O)c(=O)n2C [Metabolite V, 1-[3-carboxypropyl]-3,7-dimethylxanthine]
plasma levels of metabolite relative to PTX [1]: eight

COc1cc2c(c(OC)c1OC)-c1ccc(OC)c(=O)cc1[C@@H](NC(C)=O)CC2 [CLC, colchicine]
Day 2 Growth/Shrinkage - Patients with Index Ulcer Growth, % [2, 4]: 80%
Day 2 Growth/Shrinkage - Patients with Index Ulcer Growth, Number [2, 4]: 16
Day 2 Growth/Shrinkage - Patients with Index Ulcer Shrinkage, % [2, 4]: 19%
Day 2 Growth/Shrinkage - Patients with Index Ulcer Shrinkage, Number [2, 4]: 4
Day 4 Clearance - Patients with Remaining Ulcers, % ([2]; day 4, PTX+CLC n = 18, CLC n = 21): 71%
Day 4 Clearance - Patients with Undetectable Ulcers, % ([2]; day 4, undetectable = ulcer area of less than 1 mm^2, PTX+CLC n = 18, CLC n = 21): 29%
mean index ulcer area by treatment group (trend) ([2]; over 14 days, FIG. 1): first growing then slowly decreasing
daily average number of oral ulcers during the treatment phase ([2]; two weeks of treatment): 1.89+/−1.36
Dysgeusia, % of patients [3]: 0%
Dysgeusia, number of patients [3]: 0
Nausea, % of patients [3]: 10%
Nausea, number of patients [3]: 2
Vomiting, number of patients [3]: none
limited dermal rashes, % of patients [3, 5]: 29%
limited dermal rashes, number of patients [3, 5]: 6
